According to patent US11096977B2, “Development of a standardized and effect-optimized herbal extract of Wedelia chinensis and its use for treating disease” (Academia Sinica, priority 2015, dated 2021):

Key:
LNCaP cells = assay: growth rate of LNCaP cells; assay type: cell-based; conditions: 20 μg/ml enzalutamide
LNCaP-CR cells = assay: growth rate of LNCaP-CR cells; assay type: cell-based; conditions: 20 μg/ml enzalutamide
PC-3 cells = assay: CyQUANT direct cell proliferation assay, PC-3; assay type: cell-based; conditions: WCE 25 μg/ml or 10 nM docetaxel, 48 h
Method: (§1) After 48 h, viable cell numbers were determined using CyQUANT direct cell proliferation assay.

DU145 cells = assay: CyQUANT direct cell proliferation assay, DU145; assay type: cell-based; conditions: WCE 25 μg/ml or 10 nM docetaxel, 48 h
Method: as §1

[1] = tested on: PC-3 AR-negative prostate cancer cells; assay: murine model for androgen independent prostate cancer, orthotopic PC-3 luciferase cells; assay type: in vivo, mice; conditions: daily WCE by gavage, weekly docetaxel into tail vein; 8 week course
Method: Tumor growth was measured weekly by bioluminescent imaging. Animals were also weighed weekly.

Row | Compound | growth of LNCaP cells (FIG. 2C) (LNCaP cells) | growth of LNCaP-CR cells (FIG. 2D) (LNCaP-CR cells) | growth of PC-3 cells (FIG. 3A) (PC-3 cells) | growth of DU145 cells (FIG. 3B) (DU145 cells) | body weight (FIG. 4B) [1]
1 | CNC(=O)c1ccc(N2C(=S)N(c3ccc(C#N)c(C(F)(F)F)c3)C(=O)C2(C)C)cc1F [enzalutamide] | significantly inhibited the growth | significantly less growth inhibition | – | – | –
2 | CC(=O)O[C@@]12CO[C@@H]1C[C@H](O)[C@@]1(C)C(=O)[C@H](O)C3=C(C)[C@@H](OC(=O)[C@H](O)[C@@H](NC(=O)OC(C)(C)C)c4ccccc4)C[C@@](O)([C@@H](OC(=O)c4ccccc4)[C@H]21)C3(C)C [docetaxel] | – | – | inhibited growth | inhibited growth | large decrease in body weight
